Measurements reported in patent publication US9034895B2, “Composition and methods for treating glioblastoma” (University of Washington Through its Center for …, priority 2010, dated 2015).

Experiments:
[1] = biological target: T1, CB1 (Mus musculus, UniProt P47746); assay: Radioligand competition binding, [3H]-CP55940, CB1-expressing HEK293 membranes
T1 construct: plasmids containing full coding region of mouse CB1 and CB2; expressed in transfected cells
Method: (§1) Stable CB1 and CB2 expressing HEK293 cell lines were generated using plasmids containing full coding region of mouse CB1 and CB2.
(§2) Fragments were amplified from total RNA of cell lines by reverse transcriptase-polymerase chain reaction (RT-PCR). Sequence was confirmed and the fragment was cloned into the EcoRI site of the pIRES2-eGFP-express vector. Cells were grown to approximately 80% confluence in 10 cm cell culture dishes, transfected with the cDNA pIRES-eGFP-vector containing the murine CB1 or CB2 receptor using LipofectAMINE™ 2000 reagent in the serum-free media Opti-MEM 1 according to the manufacturer's description. Cells were subject to FACS sorting 48 h after transfection and single cell sorted based on dsRed expression into 96-well plates. Of the dsRed expressing positive clones, 3 were validated for CB1 and CB2 protein expression by radioligand binding analysis (methods discussed below).
(§3) Cells were grown to 90% confluence, rinsed twice with 1×PBS and stored at −80° C. until further use. To prepare crude cellular membrane fractions, dishes were removed from −80° C. and thawed at room temperature for 5 min. Once thawed, cells were lysed with ice-cold homogenization buffer (50 mM Tris, 1 mM EDTA, 3 mM MgCl2) and gently scraped from the dish. Total cell lysates from 3-5 dishes were collected on ice in 3 ml of ice-cold homogenization buffer. Cells were homogenized at 6,500 rpm (PRO Scientific, Oxford, Conn.) twice for 10 sec and centrifuged at 11,500 rpm for 20 min at 4° C. Supernatants were discarded and cell pellets were resuspended in homogenization buffer and triturated 10 times in ice-cold homogenization buffer. Crude cellular membrane homogenates were stored at −80° C. until further use. On the day of experiments, frozen homogenates were thawed at room temperature, gently triturated 10 times and subsequently dounce homogenized in a 7 ml glass tissue grinder (Wheaton Science Products, Millville, N.J.) by 5 strokes while on ice. […]

[2] = tested on: mouse neurons in primary culture; assay: Toxic profile in neurons in primary culture; format: cell-based
[3] = tested on: U251, A172 and GBM8; assay: Toxic profile in human astrocytoma cell lines; format: cell-based; settings: range over the three cell lines (FIG. 4), read-out: potency at killing human astrocytoma cell lines U251, A172 and GBM8
Method: (§4) Cells were plated media supplemented with 10% serum in 96-well plates (10^4 cells per wellI; 0.1 ml per well). Once they reached ˜70% confluence, they were rinsed with PBS and kept for an additional 24 hrs in media supplemented with 1% serum, at which time drugs or vehicle (DMSO, 0.1%, prepared in 10 μl serum-free media) were directly added to each well. After 3 days, cell viability was assessed using the Cell Proliferation Reagent WST-1 (Roche, Indianapolis, Ind.). Briefly, WST-1 reagent (10 μl) was added to each well for 3 hrs at 37° C. with 5% CO2 and WST-1 products were read at 450 nm using Packard SpectraCount™.
(§5) JWH-451 was tested for toxicity in cells expressing GPR124.

[4] = biological target: T2, CB2 (Mus musculus, UniProt P47936); assay: Radioligand competition binding, [3H]-CP55940, CB2-expressing HEK293 membranes
T2 construct: plasmids containing full coding region of mouse CB1 and CB2; expressed in transfected cells
Method: as §1, §2, §3

[5] = tested on: T98g cells; assay: Cell viability assay (WST-1), toxic potency and efficacy at T98g cells; format: cell-based; settings: Homo sapiens, 72 h
Method: as §4
Because the strongest toxic effect of WIN55212-2 was measured in T98g cells, these cells are used as readout to study the structure activity relationship (SAR) of AAI compounds at inducing cell death through AAI receptors.

[6] = tested on: endothelial cell line bEnd.3; assay: Toxic profile in endothelial cell line; format: cell-based
Method: as §5

[7] = tested on: U251 flank tumors; assay: U251 flank tumors in nude mice, tumor growth; format: in vivo
Method: Nude mice that had been implanted with U251 flank tumors were treated with a daily regimen of JWH-451. This experiment was performed as follow: 10^6 U251 cells were implanted in the flanks of nude mice and the tumor was allowed to grow until it reached a size of 250 mm^3, at which point the mice were enrolled in daily treatment. Tumor growth was then measured and expressed as a function of initial tumor size.

[8] = tested on: cardiac and motorneuron progenitors; assay: Toxic profile in progenitor cells; format: cell-based; settings: compared with astrocytoma cell lines
Method: as §5

T2 sequence (P47936 whole entry): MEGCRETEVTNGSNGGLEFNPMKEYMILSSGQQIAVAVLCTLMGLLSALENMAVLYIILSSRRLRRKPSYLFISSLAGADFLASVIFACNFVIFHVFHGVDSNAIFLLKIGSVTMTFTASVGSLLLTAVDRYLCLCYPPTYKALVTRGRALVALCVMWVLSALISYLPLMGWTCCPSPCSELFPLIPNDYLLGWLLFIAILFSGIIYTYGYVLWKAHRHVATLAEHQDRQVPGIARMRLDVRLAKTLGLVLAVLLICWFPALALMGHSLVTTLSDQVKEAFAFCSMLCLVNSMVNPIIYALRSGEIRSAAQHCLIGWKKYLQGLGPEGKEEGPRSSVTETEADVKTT
T1 sequence (P47746 whole entry): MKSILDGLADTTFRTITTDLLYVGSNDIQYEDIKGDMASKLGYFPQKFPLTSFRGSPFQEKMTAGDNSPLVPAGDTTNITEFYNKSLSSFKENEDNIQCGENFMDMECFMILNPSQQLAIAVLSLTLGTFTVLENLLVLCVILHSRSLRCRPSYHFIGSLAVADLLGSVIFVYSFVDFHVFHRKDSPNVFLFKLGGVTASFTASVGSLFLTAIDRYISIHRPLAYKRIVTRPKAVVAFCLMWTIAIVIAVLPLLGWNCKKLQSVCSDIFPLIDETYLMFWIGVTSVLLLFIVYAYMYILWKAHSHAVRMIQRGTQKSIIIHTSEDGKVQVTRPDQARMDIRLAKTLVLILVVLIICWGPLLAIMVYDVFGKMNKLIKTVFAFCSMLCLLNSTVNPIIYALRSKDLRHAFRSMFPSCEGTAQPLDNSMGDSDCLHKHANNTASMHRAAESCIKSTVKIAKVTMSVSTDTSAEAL

CCn1c(C)c(C(=O)c2ccc(C)c3ccccc23)c2ccccc21 [JWH-451, 1-Ethyl-2-methyl-3-(4-methyl-1-napthoyl)indole]
competition for [3H]-CP55940 binding at CB1 ([1]; FIG. 2 (CB1 not shown)): does not
lower affinity at CB1 receptors than WIN55212-2 ([1]; relative to WIN55212-2): 100 fold
viability of mouse neurons in primary culture [2]: did not affect the viability
EC50 [3]: 2000 to 4000 nM
competition for [3H]-CP55940 binding at CB2 ([4]; FIG. 2): does not
lower affinity at CB2 receptors than WIN55212-2 ([4]; relative to WIN55212-2): 100 fold
Emax ([5]; read-out: Toxic potency at T98g cells (percent efficacy)): 81%
EC50 ([5]; read-out: Toxic potency at T98g cells potency μM): 1.1 µM
viability of endothelial cell line bEnd.3 [6]: did not affect the viability
tumor growth in vivo ([7]; daily i.p. injection 15 mg/Kg, U251 flank tumors, nude mice): significantly reduced tumor growth
growth of U251 gliomas implanted in the flanks of nude mice ([7]; daily i.p. injections 5 mg/Kg (FIG. 5 legend), compared to controls): inhibits the growth
toxic effect on cardiac and motorneuron progenitors [8]: much less toxic effect
